Assay results as given in US20210386367A1, “DEVICES AND SYSTEMS FOR GASTROINTESTINAL MICROBIOME DETECTION AND MANIPULATION” (Progenity, Inc., priority 2018, published 2021).
≈ marks a conversion by molar mass, not a printed value. Like-named read-outs stand apart in the source and are kept apart here.

Columns and labels:
SIBO Bacteria = details: cited from earlier work
S. pneumoniae ATCC 49619 [1] = assay: Broth microdilution MIC (time-kill study); format: cell-based, Streptococcus pneumoniae
[2] = system: E. coli ATCC 35218 (TEM-1 β-lactamase producer); assay: Broth microdilution MIC (time-kill study); format: cell-based, Escherichia coli
E. coli ATCC 25922 = assay: Broth microdilution MIC (time-kill study); format: cell-based, Escherichia coli
S. pneumoniae ATCC 49619 [3] = details: cited from earlier work
B. vulgatus ATCC 8482 = assay: Time-kill assay; format: cell-based, Bacteroides vulgatus; details: 2×, 4×, 8× MIC; 2, 6, 24, 48 hr
Clostridium spp. = assay: Agar dilution MIC, 10 clinical isolates; format: cell-based
Pseudomonas aeruginosa = assay: Broth microdilution MIC, 50 clinical isolates; format: cell-based
How it was run: (§1)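 Medium: cation-adjusted MHB, plus 3% lysed horse blood for streptococci, which were incubated with CO2 planchets. Final inoculum approx. 5×10^5 CFU/mL; serial two-fold drug dilutions per CLSI.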

Enterobacter aerogenes = assay: Broth microdilution MIC, 50 clinical isolates; format: cell-based
How it was run: as §1

Proteus mirabilis = assay: Broth microdilution MIC, 50 clinical isolates; format: cell-based
How it was run: as §1

[4] = 10 Clostridium spp. clinical isolates

Compound: CO/N=C(\C(=O)N[C@@H]1C(=O)N2C(C(=O)O)=C(CSc3nc(=O)c(=O)[nH]n3C)CS[C@H]12)c1csc(N)n1 [ceftriaxone]
- activity against SIBO organisms (SIBO Bacteria): active against SIBO organisms
- MIC (S. pneumoniae ATCC 49619 [1]; S. pneumoniae ATCC 49619): 0.06 µg/mL (≈ 0.108 µM)
- MIC (S. pneumoniae ATCC 49619 [1]; Streptococcus pneumoniae, ATCC49619, broth microdilution, read-out: MIC): 0.06 µg/mL (≈ 0.108 µM)
- MIC ([2]; E. coli ATCC 35218): 0.03 µg/mL (≈ 0.0541 µM)
- MIC ([2]; Escherichia coli, ATCC35218): 0.03 µg/mL (≈ 0.0541 µM)
- MIC (E. coli ATCC 25922; E. coli ATCC 25922): 0.06 µg/mL (≈ 0.108 µM)
- MIC (E. coli ATCC 25922; Escherichia coli, ATCC25922, broth microdilution, read-out: MIC): 0.06 µg/mL (≈ 0.108 µM)
- CLSI QC range (MIC) (S. pneumoniae ATCC 49619 [3]): (0.03-0.12) μg/mL
- time-kill kinetics outcome (bactericidal = ≥3 log reduction in CFU per mL) (B. vulgatus ATCC 8482): bactericidal effect was observed at 8×MIC at 6, 24 and 48 hr; at 4×MIC at 6 and 24 hr; and at 2×MIC at 48 hr
- isolates susceptible (Clostridium spp.): all the isolates were susceptible
- % S (Clostridium spp.; [4]): 100%
- MIC50 (Clostridium spp.; [4]): 8 µg/mL (≈ 14.4 µM)
- MIC90 (Clostridium spp.; [4]): 16 µg/mL (≈ 28.9 µM)
- MIC range (Clostridium spp.; [4]): 0.5 to 16 µg/mL
- MIC50 (Clostridium spp.; Clostridium): 8 µg/mL (≈ 14.4 µM)
- MIC90 (Clostridium spp.; Clostridium): 16 µg/mL (≈ 28.9 µM)
- Mode (Clostridium spp.; modal MIC, 10 Clostridium spp. clinical isolates): 16 µg/mL
- Cumulative percentage of isolates inhibited at MIC (Pseudomonas aeruginosa; 4 μg/mL): 2.0%
- Number of test isolates at MIC (Pseudomonas aeruginosa; 4 μg/mL): 1
- Cumulative percentage of isolates inhibited at MIC (Pseudomonas aeruginosa; 8 μg/mL): 10.0%
- Number of test isolates at MIC (Pseudomonas aeruginosa; 8 μg/mL): 4
- Cumulative percentage of isolates inhibited at MIC (Pseudomonas aeruginosa; 16 μg/mL): 16.0%
- Number of test isolates at MIC (Pseudomonas aeruginosa; 16 μg/mL): 3
- Cumulative percentage of isolates inhibited at MIC (Pseudomonas aeruginosa; 32 μg/mL): 36.0%
- Number of test isolates at MIC (Pseudomonas aeruginosa; 32 μg/mL): 10
- Cumulative percentage of isolates inhibited at MIC (Pseudomonas aeruginosa; 64 μg/mL): 58.0%
- Number of test isolates at MIC (Pseudomonas aeruginosa; 64 μg/mL): 11
- Cumulative percentage of isolates inhibited at MIC (Pseudomonas aeruginosa; 128 μg/mL): 72.0%
- Number of test isolates at MIC (Pseudomonas aeruginosa; 128 μg/mL): 7
- Cumulative percentage of isolates inhibited at MIC (Pseudomonas aeruginosa; >128 μg/mL): 100.0%
- Number of test isolates at MIC (Pseudomonas aeruginosa; >128 μg/mL): 14
- MIC50 (Pseudomonas aeruginosa; Pseudomonas aeruginosa, read-out: MIC50): 64 µg/mL (≈ 115 µM)
- MIC90 (Pseudomonas aeruginosa; Pseudomonas aeruginosa, read-out: MIC90): > 128 µg/mL
- MIC90 (Pseudomonas aeruginosa; listed as CTR): >128 µg/mL
- % R (Enterobacter aerogenes): 26%
- % S (Enterobacter aerogenes): 74%
- MIC range (Enterobacter aerogenes): 0.03 to 64 µg/mL
- Mode (Enterobacter aerogenes): 0.06 µg/mL
- Cumulative percentage of isolates inhibited at MIC (Enterobacter aerogenes; 0.03 μg/mL): 6.0%
- Number of test isolates at MIC (Enterobacter aerogenes; 0.03 μg/mL): 3
- Cumulative percentage of isolates inhibited at MIC (Enterobacter aerogenes; 0.06 μg/mL): 42.0%
- Number of test isolates at MIC (Enterobacter aerogenes; 0.06 μg/mL): 18
- Cumulative percentage of isolates inhibited at MIC (Enterobacter aerogenes; 1 μg/mL): 74.0%
- Number of test isolates at MIC (Enterobacter aerogenes; 1 μg/mL): 2
- Cumulative percentage of isolates inhibited at MIC (Enterobacter aerogenes; 8 μg/mL): 78.0%
- Number of test isolates at MIC (Enterobacter aerogenes; 8 μg/mL): 2
- Cumulative percentage of isolates inhibited at MIC (Enterobacter aerogenes; 16 μg/mL): 86.0%
- Number of test isolates at MIC (Enterobacter aerogenes; 16 μg/mL): 4
- Cumulative percentage of isolates inhibited at MIC (Enterobacter aerogenes; 32 μg/mL): 94.0%
- Number of test isolates at MIC (Enterobacter aerogenes; 32 μg/mL): 4
- Cumulative percentage of isolates inhibited at MIC (Enterobacter aerogenes; 64 μg/mL): 100.0%
- Number of test isolates at MIC (Enterobacter aerogenes; 64 μg/mL): 3
- MIC50 (Enterobacter aerogenes; Klebsiella aerogenes, read-out: MIC50): 0.12 µg/mL (≈ 0.216 µM)
- MIC90 (Enterobacter aerogenes; Klebsiella aerogenes, read-out: MIC90): 32 µg/mL (≈ 57.7 µM)
- % R (Enterobacter aerogenes; listed as CTR): 26%
- % R (Proteus mirabilis): Six
- % S (Proteus mirabilis): 94%
- Mode (Proteus mirabilis): 0.004 µg/mL
- Cumulative percentage of isolates inhibited at MIC (Proteus mirabilis; 0.004 μg/mL): 62.0%
- Number of test isolates at MIC (Proteus mirabilis; 0.004 μg/mL): 21
- Cumulative percentage of isolates inhibited at MIC (Proteus mirabilis; 0.008 μg/mL): 84.0%
- Number of test isolates at MIC (Proteus mirabilis; 0.008 μg/mL): 11
- Cumulative percentage of isolates inhibited at MIC (Proteus mirabilis; 0.015 μg/mL): 86.0%
- Number of test isolates at MIC (Proteus mirabilis; 0.015 μg/mL): 1
- Cumulative percentage of isolates inhibited at MIC (Proteus mirabilis; 0.03 μg/mL): 88.0%
- Number of test isolates at MIC (Proteus mirabilis; 0.03 μg/mL): 1
- Cumulative percentage of isolates inhibited at MIC (Proteus mirabilis; 0.06 μg/mL): 92.0%
- Number of test isolates at MIC (Proteus mirabilis; 0.06 μg/mL): 2
- Cumulative percentage of isolates inhibited at MIC (Proteus mirabilis; 1 μg/mL): 94.0%
- Number of test isolates at MIC (Proteus mirabilis; 1 μg/mL): 1
- Cumulative percentage of isolates inhibited at MIC (Proteus mirabilis; 4 μg/mL): 96.0%
- Number of test isolates at MIC (Proteus mirabilis; 4 μg/mL): 1
- Cumulative percentage of isolates inhibited at MIC (Proteus mirabilis; 8 μg/mL): 98.0%
- Number of test isolates at MIC (Proteus mirabilis; 8 μg/mL): 1
- Cumulative percentage of isolates inhibited at MIC (Proteus mirabilis; >128 μg/mL): 100.0%
- Number of test isolates at MIC (Proteus mirabilis; >128 μg/mL): 1
- MIC50 (Proteus mirabilis; Proteus mirabilis, read-out: MIC50): 0.004 µg/mL (≈ 0.00721 µM)
- MIC90 (Proteus mirabilis; Proteus mirabilis, read-out: MIC90): 0.06 µg/mL (≈ 0.108 µM)
- % R (Proteus mirabilis; listed as CTR): 6%^
- Cumulative percentage of isolates inhibited at MIC (Proteus mirabilis; ≤0.002 μg/mL): 20.0%
- Number of test isolates at MIC (Proteus mirabilis; ≤0.002 μg/mL): 10
